Source: the NIST ThermoML archive (doi:10.1021/je060107n)

Test: mn = molality of the nth substance listed, in mol/kg
Details: 101 kPa, Liquid; for speed of sound: Linear variable-path acoustic interferometer; for mass density: Pycnometric method; for viscosity: Capillary tube (Ostwald / Ubbelohde) method

O=[N+]([O-])[O-].O=[N+]([O-])[O-].[Mg+2] [magnesium nitrate] + O
Details | mass density [kg/m3] | speed of sound [m/s] | viscosity [mPa·s]
293.15 K, m1 = 2.131 | – | 1656.3 | –
293.15 K, m1 = 2.493 | – | 1682.1 | –
293.15 K, m1 = 2.793 | – | 1705.3 | –
293.15 K, m1 = 3.118 | – | 1728.1 | –
293.15 K, m1 = 3.17 | – | 1736.5 | –
293.15 K, m1 = 3.501 | – | 1755.4 | –
293.15 K, m1 = 3.757 | – | 1771.3 | –
293.15 K, m1 = 4.051 | – | 1787.5 | –
293.15 K, m1 = 4.285 | – | 1802.4 | –
293.15 K, m1 = 4.403 | – | 1809.3 | –
293.15 K, m1 = 4.883 | – | 1838.8 | –
295.75 K, m1 = 0.3405 | 1032.9 | – | –
296 K, m1 = 5.134 | 1404.4 | – | –
297.5 K, m1 = 3.501 | 1299.9 | – | –
297.65 K, m1 = 0.5931 | 1057.4 | – | –
297.85 K, m1 = 4.285 | 1350.5 | – | –
297.9 K, m1 = 3.17 | 1281.3 | – | –
298.1 K, m1 = 2.493 | 1225.2 | – | –
298.15 K, m1 = 0.0145 | – | 1498.3 | 0.9075
298.15 K, m1 = 0.0528 | – | 1500.5 | 0.9227
298.15 K, m1 = 0.2491 | – | 1514.9 | 0.9713
298.15 K, m1 = 0.3405 | – | 1519 | –
298.15 K, m1 = 0.5931 | – | – | 1.079
298.15 K, m1 = 0.6173 | – | 1540.9 | –
298.15 K, m1 = 0.896 | – | 1563 | –
298.15 K, m1 = 0.9898 | – | 1570.8 | 1.232
298.15 K, m1 = 1.262 | – | 1590 | 1.366
298.15 K, m1 = 1.525 | – | 1611.1 | –
298.15 K, m1 = 1.827 | – | 1637.3 | 1.662
298.15 K, m1 = 2.131 | – | 1660.5 | 1.842
298.15 K, m1 = 2.493 | – | 1685.3 | –
298.15 K, m1 = 2.584 | – | – | 2.206
298.15 K, m1 = 2.793 | – | 1706.5 | –
298.15 K, m1 = 3.096 | – | – | 2.665
298.15 K, m1 = 3.118 | – | 1728.8 | –
298.15 K, m1 = 3.17 | – | 1736.6 | –
298.15 K, m1 = 3.329 | – | – | 2.921
298.15 K, m1 = 3.501 | – | 1754.6 | –
298.15 K, m1 = 3.704 | – | – | 3.367
298.15 K, m1 = 3.757 | – | 1774.2 | –
298.15 K, m1 = 4.039 | – | – | 3.889
298.15 K, m1 = 4.051 | – | 1786.2 | –
298.15 K, m1 = 4.285 | – | 1800.3 | –
298.15 K, m1 = 4.403 | – | 1806.6 | –
298.15 K, m1 = 4.728 | – | – | 5.349
298.15 K, m1 = 4.883 | – | 1831.8 | –
298.15 K, m1 = 4.907 | – | – | 5.933
298.15 K, m1 = 5.134 | – | 1855.2 | –
298.15 K, m1 = 5.282 | – | – | 7.034
298.2 K, m1 = 5.134 | 1402.9 | – | –
298.5 K, m1 = 4.051 | 1333.6 | – | –
299.15 K, m1 = 0.0145 | 998.05 | – | –
299.35 K, m1 = 0.0528 | 1002.2 | – | –
299.6 K, m1 = 0.3405 | 1031.8 | – | –
299.75 K, m1 = 2.131 | 1196.1 | – | –
299.8 K, m1 = 3.501 | 1298.5 | – | –
299.95 K, m1 = 4.728 | 1377.8 | – | –
300.1 K, m1 = 3.17 | 1280 | – | –
300.15 K, m1 = 4.883 | 1384.4 | – | –
300.3 K, m1 = 4.285 | 1349 | – | –
300.35 K, m1 = 2.493 | 1223.9 | – | –
300.5 K, m1 = 0.9898 | 1095.4 | – | –
300.5 K, m1 = 5.134 | 1401.4 | – | –
300.75 K, m1 = 2.584 | 1232 | – | –
300.75 K, m1 = 4.039 | 1332.1 | – | –
300.85 K, m1 = 4.051 | 1332.2 | – | –
300.9 K, m1 = 0.896 | 1085.9 | – | –
300.95 K, m1 = 0.5931 | 1056.2 | – | –
300.95 K, m1 = 1.262 | 1119.4 | – | –
300.95 K, m1 = 2.793 | 1247.4 | – | –
301 K, m1 = 4.97 | 1390.1 | – | –
301.05 K, m1 = 3.704 | 1311.3 | – | –
301.1 K, m1 = 1.525 | 1142.4 | – | –
301.25 K, m1 = 4.403 | 1355.4 | – | –
301.6 K, m1 = 0.2491 | 1022.3 | – | –
